# Test results as given in patent publication US11319329B2, “Inhibitors of Bruton's tyrosine kinase and methods of their use” (JANSSEN PHARMACEUTICA NV, priority 2015, dated 2022).
# Molecular target: unphosphorylated-BTK kinase domain (UP-BTK), GST-tagged human BTK (389-659aa) (Homo sapiens (Human), UniProt Q06187)
# Experiment: BTK kinase Lanthascreen binding assay
# Conditions: for BTK_I_binding pIC50: negative log of the IC50 in molar, 60 minutes incubation
# Experimental: BTK Kinase Lanthascreen Binding Assay:
# A BTK kinase lanthascreen binding assay monitors compound binding to unphosphorylated-BTK kinase domain (UP-BTK), by competing with a fluorescent labeled tracer. […] Data were analyzed using Xlfit™ version 5.3 from ID Business Solutions (Guildford), Microsoft Excel add-in. pIC50 refers to the negative log of the IC50 in molar
# [1] = unphosphorylated BTK kinase domain, Lanthascreen
# Sequence of unphosphorylated-BTK kinase domain (UP-BTK), GST-tagged human BTK (389-659aa) (Q06187 389-659): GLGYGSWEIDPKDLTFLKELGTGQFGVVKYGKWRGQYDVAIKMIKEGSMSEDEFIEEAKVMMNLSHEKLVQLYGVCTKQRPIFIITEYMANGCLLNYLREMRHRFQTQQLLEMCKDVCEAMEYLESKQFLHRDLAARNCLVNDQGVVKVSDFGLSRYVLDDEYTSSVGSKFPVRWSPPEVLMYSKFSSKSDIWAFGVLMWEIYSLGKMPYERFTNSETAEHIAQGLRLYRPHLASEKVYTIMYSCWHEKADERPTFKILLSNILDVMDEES
SMILES,BTK_I_binding pIC50 (50 nM Tracer 236),other results
"C=CC(=O)N[C@H]1CCC[C@H]1NC(=O)c1sc2nccc3c2c1NC(=O)N3c1ccc(Oc2cccnc2)cc1 (relative stereo) [Example 300, N-((1R,2S)-2-Acrylamidocyclopentyl)-4-oxo-5-(*S)-(4-(pyridin-3-yloxy)phen)-4,5-dihydro-3H-1-thia-3,5,8-triazaacenaphthylene-2-carboxamide]",8.27,–
"Cc1cc(Oc2ccccc2)ccc1N1C(=O)Nc2c(C(=O)N[C@@H]3CCC[C@H]3O)sc3nccc1c23 (single isomer, unassigned) [Example 4]",–,BTK_I_binding pIC50 [1]: 7.73
"C=CC(=O)NC1CCCC[C@H]1NC(=O)c1sc2nccc3c2c1NC(=O)N3c1cnc(OCC(C)C)cc1C (single isomer, unassigned) [Example 352, N-((1R,2S)-2-Acrylamidocyclohexyl)-5-(*R)-(6-isobutoxy-4-methylpyridin-3-yl)-4-oxo-4,5-dihydro-3H-1-thia-3,5,8-triazaacenaphthylene-2-carboxamide]",<6,–
"Cc1cc(Oc2ccccc2)ccc1N1C(=O)Nc2c(C(=O)N[C@H]3CCCC[C@@H]3NC=O)sc3nccc1c23 [Example 54, N-((1S,2S)-2-Formamidocyclohexyl)-5-(2-methyl-4-phenoxyphenyl)-4-oxo-4,5-dihydro-3H-1-thia-3,5,8-triazaacenaphthylene-2-carboxamide]",–,BTK_I_binding pIC50 [1]: 5.90
"CCC(=O)N[C@H]1CCC[C@H]1NC(=O)c1sc2nccc3c2c1NC(=O)N3c1ccc(Oc2ccccc2)nc1C (single isomer, unassigned) [Example 353, 5-(*S)-(2-Methyl-6-phenoxypyridin-3-yl)-4-oxo-N-((1R,2R)-2-propionamidocyclopentyl)-4,5-dihydro-3H-1-thia-3,5,8-triazaacenaphthylene-2-carboxamide]",<6,–
"Cc1cc(Oc2ccccc2)ccc1N1C(=O)Nc2c(C(=O)N[C@H]3CC[C@H](O)CC3)sc3nccc1c23 (single isomer, unassigned) [Example 85, N-((1R,4R)-4-Hydroxycyclohexyl)-5-(*S)-(2-methyl-4-phenoxyphenyl)-4-oxo-4,5-dihydro-3H-1-thia-3,5,8-triazaacenaphthylene-2-carboxamide]",–,IC50 (read-out: BTK_I_binding pIC50 (converted)): 21.4 nM
"C=CC(=O)N[C@H]1CCCC[C@H]1NC(=O)c1sc2nccc3c2c1NC(=O)N3c1cnc(CC(C)C)cc1C (single isomer, unassigned) [Example 357, N-((1R,2S)-2-Acrylamidocyclohexyl)-5-(*S)-(6-isobutyl-4-methylpyridin-3-yl)-4-oxo-4,5-dihydro-3H-1-thia-3,5,8-triazaacenaphthylene-2-carboxamide]",7.98,–
